Source: ChEMBL document CHEMBL3525932, “Comparison of metabolism of sesamin and episesamin by drug-metabolizing enzymes in human liver” (Drug Metab Dispos, 2012)
One block for each molecule: values may come before it.

Experiments:
[1] = Drug metabolism in human liver microsomes assessed as UGT-mediated glucuronidation per mg of protein after 10 to 30 mins by HPLC analysis in presence of UDP-GlcUA; type: ADME
[2] = Drug metabolism in Sprague-Dawley rat liver microsomes assessed as CYP450-mediated catecholization per mg of protein after 10 to 30 mins by HPLC analysis in presence of NADPH; type: ADME
[3] = Drug metabolism in Sprague-Dawley rat liver microsomes assessed as UGT-mediated glucuronidation per mg of protein after 10 to 30 mins by HPLC analysis in presence of UDP-GlcUA; type: ADME
[4] = system: UGT; test: Drug metabolism in Sprague-Dawley rat liver microsomes assessed as UGT-mediated glucuronidation after 10 to 30 mins by HPLC analysis in presence of UDP-GlcUA; type: ADME
[5] = target: T1, Cytochrome P450 2C19 (Homo sapiens, UniProt P33261); test: Activity of recombinant human CYP2C19 expressed in Saccharomyces cerevisiae AH22 cells assessed as enzyme-mediated sesamin dicatechol formation after 15 mins by HPLC analysis in presence of NADPH; type: ADME, cell-based; details: ah22, 0.25 h
T1 sequence (P33261 whole entry): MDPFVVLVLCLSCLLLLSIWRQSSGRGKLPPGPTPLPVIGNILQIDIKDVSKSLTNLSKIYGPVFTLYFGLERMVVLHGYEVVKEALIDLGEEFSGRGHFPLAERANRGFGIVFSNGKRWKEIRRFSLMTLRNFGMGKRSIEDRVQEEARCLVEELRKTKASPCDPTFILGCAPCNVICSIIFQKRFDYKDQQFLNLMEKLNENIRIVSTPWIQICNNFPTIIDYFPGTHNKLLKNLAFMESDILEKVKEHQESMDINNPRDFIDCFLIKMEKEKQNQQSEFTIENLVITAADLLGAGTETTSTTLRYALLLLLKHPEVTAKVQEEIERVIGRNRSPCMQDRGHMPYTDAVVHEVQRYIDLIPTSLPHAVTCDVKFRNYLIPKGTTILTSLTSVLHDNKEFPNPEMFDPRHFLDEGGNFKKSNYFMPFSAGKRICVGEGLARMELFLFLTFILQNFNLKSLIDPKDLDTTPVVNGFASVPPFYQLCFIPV

[6] = system: CYP450; test: Drug metabolism in Sprague-Dawley rat liver microsomes assessed as CYP450-mediated catecholization after 10 to 30 mins by HPLC analysis in presence of NADPH; type: ADME
[7] = target: T1, Cytochrome P450 2C19; test: Activity of recombinant human CYP2C19 expressed in Saccharomyces cerevisiae AH22 cells assessed as enzyme-mediated compound formation treated with sesamin at 2 to 20 uM after 15 mins by HPLC analysis in presence of NADPH; type: ADME, cell-based; details: ah22, 0.25 h
[8] = target: T2, Cytochrome P450 2C9 (Homo sapiens, UniProt P11712); test: Activity of recombinant human CYP2C9 expressed in Saccharomyces cerevisiae AH22 cells assessed as enzyme-mediated sesamin dicatechol formation after 15 mins by HPLC analysis in presence of NADPH; type: ADME, cell-based; details: ah22, 0.25 h
T2 sequence (P11712 whole entry): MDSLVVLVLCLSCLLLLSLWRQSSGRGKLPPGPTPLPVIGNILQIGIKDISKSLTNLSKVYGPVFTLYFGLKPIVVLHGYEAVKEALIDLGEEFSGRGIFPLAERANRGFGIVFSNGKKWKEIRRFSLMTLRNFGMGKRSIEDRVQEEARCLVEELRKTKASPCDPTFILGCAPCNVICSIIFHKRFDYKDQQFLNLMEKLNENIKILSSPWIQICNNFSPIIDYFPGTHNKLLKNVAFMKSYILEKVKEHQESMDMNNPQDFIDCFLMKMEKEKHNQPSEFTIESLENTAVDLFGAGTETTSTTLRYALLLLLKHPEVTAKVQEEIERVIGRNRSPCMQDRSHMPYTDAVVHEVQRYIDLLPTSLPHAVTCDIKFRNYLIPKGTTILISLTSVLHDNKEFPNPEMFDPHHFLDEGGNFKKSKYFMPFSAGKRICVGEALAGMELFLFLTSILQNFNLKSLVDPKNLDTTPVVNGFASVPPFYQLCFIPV

[9] = system: CYP450; test: Drug metabolism in human liver microsomes assessed as CYP450-mediated catecholization after 10 to 30 mins by HPLC analysis in presence of NADPH; type: ADME
[10] = Drug metabolism in human liver microsomes assessed as CYP450-mediated catecholization per mg of protein after 10 to 30 mins by HPLC analysis in presence of NADPH; type: ADME
[11] = system: UGT; test: Drug metabolism in human liver microsomes assessed as UGT-mediated glucuronidation after 10 to 30 mins by HPLC analysis in presence of UDP-GlcUA; type: ADME
[12] = system: Liver microsome; test: Drug level in human liver microsomes treated with sesamin after 30 mins by HPLC analysis in presence of NADPH; type: ADME; details: 0.5 h
[13] = target: T2, Cytochrome P450 2C9; test: Mechanism-based inhibition of recombinant human CYP2C9 expressed in microsomes isolated from Saccharomyces cerevisiae AH22 cells assessed as diclofenac 4'-hydroxylation up to 50 uM preincubated for 5 to 10 mins followed by substrate addition measured by HPLC analysis; type: ADME, cell-based
[14] = target: T3, Cytochrome P450 1A2 (Homo sapiens, UniProt P05177); test: Activity of recombinant human CYP1A2 expressed in Saccharomyces cerevisiae AH22 cells assessed as enzyme-mediated (R)-episesamin monocatechol formation at 2 to 75 uM after 15 mins by HPLC analysis in presence of NADPH; type: ADME, cell-based; details: ah22, 0.25 h
T3 sequence (P05177 whole entry): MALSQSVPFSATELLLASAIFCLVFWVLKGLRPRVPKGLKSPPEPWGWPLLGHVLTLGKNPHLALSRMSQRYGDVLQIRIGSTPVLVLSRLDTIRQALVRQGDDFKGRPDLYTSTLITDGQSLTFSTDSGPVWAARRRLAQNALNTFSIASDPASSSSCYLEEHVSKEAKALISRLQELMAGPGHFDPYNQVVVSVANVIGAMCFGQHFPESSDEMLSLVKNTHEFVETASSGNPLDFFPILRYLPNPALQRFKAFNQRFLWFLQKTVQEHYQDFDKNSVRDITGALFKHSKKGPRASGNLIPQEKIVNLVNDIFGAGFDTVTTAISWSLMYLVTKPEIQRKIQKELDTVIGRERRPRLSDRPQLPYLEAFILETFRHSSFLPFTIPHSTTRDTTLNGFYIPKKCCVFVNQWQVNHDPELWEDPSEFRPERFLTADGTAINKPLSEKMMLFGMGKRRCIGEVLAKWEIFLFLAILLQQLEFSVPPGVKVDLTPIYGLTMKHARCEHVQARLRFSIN

[15] = target: T2, Cytochrome P450 2C9; test: (§1) Mechanism-based inhibition of recombinant human CYP2C9 expressed in microsomes isolated from Saccharomyces cerevisiae AH22 cells assessed as diclofenac 4'-hydroxylation preincubated for 5 to 10 mins followed by substrate addition measured after 15 mins by HPLC analysis; type: ADME, cell-based
[16] = target: T4, CYP2C9 (Homo sapiens, UniProt P11712); test: as §1; type: ADME, cell-based; details: human, probe diclofenac (4'-hydroxylation)
T4 sequence (P11712 whole entry): as the sequence (P11712 whole entry) above

[17] = target: T3, Cytochrome P450 1A2; test: Activity of recombinant human CYP1A2 expressed in Saccharomyces cerevisiae AH22 cells assessed as enzyme-mediated episesamin dicatechol formation at 2 to 75 uM after 15 mins by HPLC analysis in presence of NADPH; type: ADME, cell-based; details: ah22, 0.25 h
[18] = system: Liver microsome; test: Drug metabolism in human liver microsomes assessed as episesamin monocatecholization at 5 uM after 15 mins by HPLC analysis in presence of NADPH and CYP2C9 inhibitor sulfaphenazole; type: ADME; details: 0.25 h
[19] = system: Liver microsome; test: Drug metabolism in human liver microsomes assessed as (S)-episesamin monocatechol formation at 2 to 75 uM after 15 mins by HPLC analysis in presence of NADPH; type: ADME; details: 0.25 h
[20] = system: Liver microsome; test: Drug metabolism in human liver microsomes assessed as (R)-episesamin monocatechol formation at 2 to 75 uM after 15 mins by HPLC analysis in presence of NADPH; type: ADME; details: 0.25 h
[21] = system: Liver microsome; test: Drug metabolism in human liver microsomes assessed as (S)-episesamin monocatechol formation at 5 uM after 30 mins by HPLC analysis in presence of NADPH; type: ADME; details: 0.5 h
[22] = target: T2, Cytochrome P450 2C9; test: Activity of recombinant human CYP2C9 expressed in Saccharomyces cerevisiae AH22 cells assessed as enzyme-mediated (R)-episesamin monocatechol formation at 2 to 75 uM after 15 mins by HPLC analysis in presence of NADPH; type: ADME, cell-based; details: ah22, 0.25 h
[23] = system: Liver microsome; test: Drug metabolism in human liver microsomes assessed as (R)-episesamin monocatechol formation at 5 uM after 30 mins by HPLC analysis in presence of NADPH; type: ADME; details: 0.5 h
[24] = target: T2, Cytochrome P450 2C9; test: Activity of recombinant human CYP2C9 expressed in Saccharomyces cerevisiae AH22 cells assessed as enzyme-mediated episesamin dicatechol formation at 2 to 75 uM after 15 mins by HPLC analysis in presence of NADPH; type: ADME, cell-based; details: ah22, 0.25 h
[25] = system: Liver microsome; test: Drug metabolism in human liver microsomes assessed as episesamin monocatecholization at 5 uM after 15 mins by HPLC analysis in presence of NADPH and CYP2C19 inhibitor (+)-N-3-benzylnirvanol; type: ADME; details: 0.25 h
[26] = system: Liver microsome; test: Drug metabolism in human liver microsomes assessed as (S)-episesamin monocatechol formation at 5 uM after 15 mins by HPLC analysis in presence of NADPH and anti-CYP2C9 antibody; type: ADME; details: 0.25 h
[27] = target: T1, Cytochrome P450 2C19; test: Activity of recombinant human CYP2C19 expressed in Saccharomyces cerevisiae AH22 cells assessed as enzyme-mediated (R)-episesamin monocatechol formation at 2 to 75 uM after 15 mins by HPLC analysis in presence of NADPH; type: ADME, cell-based; details: ah22, 0.25 h
[28] = target: T1, Cytochrome P450 2C19; test: Activity of recombinant human CYP2C19 expressed in Saccharomyces cerevisiae AH22 cells assessed as enzyme-mediated (S)-episesamin monocatechol formation at 2 to 75 uM after 15 mins by HPLC analysis in presence of NADPH; type: ADME, cell-based; details: ah22, 0.25 h
[29] = target: Cytochrome P450 3A4 (Homo sapiens, UniProt P08684); test: Activity of recombinant human CYP3A4 expressed in Saccharomyces cerevisiae AH22 cells assessed as enzyme-mediated catecholization at 2 to 75 uM after 15 mins by HPLC analysis in presence of NADPH; type: ADME, cell-based; details: ah22, 0.25 h
Sequence of Cytochrome P450 3A4 (P08684 whole entry): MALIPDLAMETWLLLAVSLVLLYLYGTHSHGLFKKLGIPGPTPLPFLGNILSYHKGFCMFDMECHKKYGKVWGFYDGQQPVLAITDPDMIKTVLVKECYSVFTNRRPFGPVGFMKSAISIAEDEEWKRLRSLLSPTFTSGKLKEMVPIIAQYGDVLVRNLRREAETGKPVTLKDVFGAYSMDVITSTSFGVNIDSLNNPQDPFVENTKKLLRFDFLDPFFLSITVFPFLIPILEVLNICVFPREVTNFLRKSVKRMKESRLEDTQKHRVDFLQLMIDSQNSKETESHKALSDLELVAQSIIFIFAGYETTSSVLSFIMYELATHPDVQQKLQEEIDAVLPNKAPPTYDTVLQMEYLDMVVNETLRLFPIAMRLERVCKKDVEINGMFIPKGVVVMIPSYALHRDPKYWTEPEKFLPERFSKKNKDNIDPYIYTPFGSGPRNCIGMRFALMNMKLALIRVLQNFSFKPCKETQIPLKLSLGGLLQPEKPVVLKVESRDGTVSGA

[30] = target: Cytochrome P450 2D6 (Homo sapiens, UniProt P10635); test: Activity of recombinant human CYP2D6 expressed in Saccharomyces cerevisiae AH22 cells assessed as enzyme-mediated catecholization at 2 to 75 uM after 15 mins by HPLC analysis in presence of NADPH; type: ADME, cell-based; details: ah22, 0.25 h
Sequence of Cytochrome P450 2D6 (P10635 whole entry): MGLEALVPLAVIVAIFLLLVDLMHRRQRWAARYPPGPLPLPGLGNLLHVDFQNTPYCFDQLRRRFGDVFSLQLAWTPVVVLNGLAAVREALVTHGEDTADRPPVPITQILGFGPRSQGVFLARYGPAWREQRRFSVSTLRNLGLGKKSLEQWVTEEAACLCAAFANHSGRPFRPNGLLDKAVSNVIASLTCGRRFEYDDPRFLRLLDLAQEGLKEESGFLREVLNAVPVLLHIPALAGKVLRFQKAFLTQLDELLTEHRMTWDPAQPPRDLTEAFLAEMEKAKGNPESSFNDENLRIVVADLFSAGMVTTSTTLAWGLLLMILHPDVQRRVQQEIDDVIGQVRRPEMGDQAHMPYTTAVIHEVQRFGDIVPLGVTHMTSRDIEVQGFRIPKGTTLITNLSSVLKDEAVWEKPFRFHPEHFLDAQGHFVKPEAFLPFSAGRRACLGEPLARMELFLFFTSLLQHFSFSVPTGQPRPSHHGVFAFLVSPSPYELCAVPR

[31] = system: Liver microsome; test: Drug metabolism in human liver microsomes assessed as episesamin dicatechol formation at 2 to 75 uM after 15 mins by HPLC analysis in presence of NADPH; type: ADME; details: 0.25 h
[32] = target: T4, CYP2C9; test: Ratio of Kinact to Ki(app) for mechanism-based inhibition of recombinant human CYP2C9 expressed in microsomes isolated from Saccharomyces cerevisiae AH22 cells assessed as diclofenac 4'-hydroxylation preincubated for 5 to 10 mins followed by substrate addition measured after 15 mins by HPLC analysis; type: ADME, cell-based; details: probe diclofenac (4'-hydroxylation)
[33] = target: Cytochrome P450 2E1 (Homo sapiens, UniProt P05181); test: Activity of recombinant human CYP2E1 expressed in Saccharomyces cerevisiae AH22 cells assessed as enzyme-mediated catecholization at 2 to 75 uM after 15 mins by HPLC analysis in presence of NADPH; type: ADME, cell-based; details: ah22, 0.25 h
Sequence of Cytochrome P450 2E1 (P05181 whole entry): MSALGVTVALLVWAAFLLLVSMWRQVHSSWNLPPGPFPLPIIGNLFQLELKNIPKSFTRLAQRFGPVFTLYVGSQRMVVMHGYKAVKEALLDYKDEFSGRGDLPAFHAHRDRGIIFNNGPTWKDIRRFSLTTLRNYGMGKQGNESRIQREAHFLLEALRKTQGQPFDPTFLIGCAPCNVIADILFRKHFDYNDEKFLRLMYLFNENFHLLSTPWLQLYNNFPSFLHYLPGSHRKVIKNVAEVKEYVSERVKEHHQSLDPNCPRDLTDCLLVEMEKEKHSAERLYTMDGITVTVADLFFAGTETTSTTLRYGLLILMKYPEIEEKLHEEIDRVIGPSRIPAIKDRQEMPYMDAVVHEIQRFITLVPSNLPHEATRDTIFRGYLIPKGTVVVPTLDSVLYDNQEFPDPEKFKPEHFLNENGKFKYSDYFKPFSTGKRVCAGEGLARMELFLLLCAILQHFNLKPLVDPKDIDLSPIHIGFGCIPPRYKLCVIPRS

[34] = target: T1, Cytochrome P450 2C19; test: Activity of recombinant human CYP2C19 expressed in Saccharomyces cerevisiae AH22 cells assessed as enzyme-mediated episesamin dicatechol formation at 2 to 75 uM after 15 mins by HPLC analysis in presence of NADPH; type: ADME, cell-based; details: ah22, 0.25 h
[35] = system: Liver microsome; test: Drug metabolism in heat-inactivated human liver microsomes assessed as episesamin dicatechol formation at 2 to 75 uM after 15 mins by HPLC analysis in presence of NADPH; type: ADME; details: 0.25 h
[36] = system: Liver microsome; test: Drug metabolism in human liver microsomes assessed as (R)-episesamin monocatechol formation at 5 uM after 15 mins by HPLC analysis in presence of NADPH and anti-CYP2C9 antibody; type: ADME; details: 0.25 h
[37] = target: T2, Cytochrome P450 2C9; test: Activity of recombinant human CYP2C9 expressed in Saccharomyces cerevisiae AH22 cells assessed as enzyme-mediated (S)-episesamin monocatechol formation at 2 to 75 uM after 15 mins by HPLC analysis in presence of NADPH; type: ADME, cell-based; details: ah22, 0.25 h
[38] = system: Liver microsome; test: Drug metabolism in human liver microsomes assessed as (R)-episesamin monocatechol formation at 5 uM after 15 mins by HPLC analysis in presence of NADPH and anti-CYP1A2 antibody; type: ADME; details: 0.25 h
[39] = system: Liver microsome; test: Drug metabolism in human liver microsomes assessed as (S)-episesamin monocatechol formation at 5 uM after 15 mins by HPLC analysis in presence of NADPH and anti-CYP1A2 antibody; type: ADME; details: 0.25 h
[40] = system: Liver microsome; test: Drug metabolism in human liver microsomes assessed as sesamin monocatechol formation after 30 mins by HPLC analysis in presence of NADPH; type: ADME; details: 0.5 h
[41] = target: T1, Cytochrome P450 2C19; test: Activity of recombinant human CYP2C19 expressed in Saccharomyces cerevisiae AH22 cells assessed as enzyme-mediated sesamin dicatechol/monocatechol formation at 2 to 20 uM after 15 mins by HPLC analysis in presence of NADPH; type: ADME, cell-based; details: ah22, 0.25 h

- Vmax [1]: 6 nmol/min/mg
- Vmax [2]: 3.7 nmol/min/mg
- Vmax [3]: 1.1 nmol/min/mg
- Km [4]: 20.3 µM
- Drug metabolism [5]: 10.4 nmol/min
- Km [6]: 5.3 µM
- Drug metabolism [7]: metabolite_detected
- Drug metabolism [8]: 0.83 nmol/min
- Km [9]: 18.8 µM
- Vmax [10]: 0.44 nmol/min/mg
- Km [11]: 18 µM
- Drug metabolism [12]: metabolite_detected
SMILES: Oc1ccc([C@H]2OC[C@H]3[C@@H]2CO[C@@H]3c2ccc3c(c2)OCO3)cc1O

SMILES: c1cc2c(cc1[C@H]1OC[C@H]3[C@@H]1CO[C@H]3c1ccc3c(c1)OCO3)OCO2 [ASARININ]
- inhibition (INH) [13]: Dose-dependent effect
- Drug metabolism [14]: metabolite_detected
- Vmax [2]: 6.3 nmol/min/mg
- inhibition (INH) ([15]; human, microsomes, 0.25 h): Dose-dependent effect
- Ki ([15]; read-out: Ki(app)): 6.8 µM
- kinact at 0.25 h [16]: 0.00283 s⁻¹
- Drug metabolism [17]: metabolite_not_detected
- Drug metabolism [18]: metabolite_not_detected
- Drug metabolism [19]: metabolite_detected
- Drug metabolism [20]: metabolite_detected
- Drug metabolism [21]: metabolite_detected
- Drug metabolism [22]: metabolite_detected
- Drug metabolism [23]: metabolite_detected
- Km [6]: 16 µM
- Drug metabolism [24]: metabolite_not_detected
- Drug metabolism [25]: metabolite_detected
- Drug metabolism [26]: metabolite_not_detected
- Drug metabolism [27]: metabolite_detected
- Drug metabolism [28]: metabolite_detected
- Km [9]: 13 µM
- Drug metabolism [29]: metabolite_not_detected
- Drug metabolism [30]: metabolite_not_detected
- Vmax [10]: 0.4 nmol/min/mg
- Drug metabolism [31]: metabolite_detected
- kinact/KI at 0.25 h [32]: 417 M⁻¹ s⁻¹
- Drug metabolism [33]: metabolite_not_detected
- Drug metabolism [34]: metabolite_detected
- Drug metabolism [35]: metabolite_not_detected
- Drug metabolism [36]: metabolite_not_detected
- Drug metabolism [37]: metabolite_detected
- Drug metabolism [38]: metabolite_not_detected
- Drug metabolism [39]: metabolite_detected

SMILES: c1cc2c(cc1[C@H]1OC[C@H]3[C@@H]1CO[C@@H]3c1ccc3c(c1)OCO3)OCO2 [SESAMIN]
- Vmax [2]: 4.8 nmol/min/mg
- Km [6]: 7.1 µM
- Km [9]: 7.7 µM
- Drug metabolism [40]: metabolite_detected
- Vmax [10]: 0.81 nmol/min/mg
- kinact/KI at 0.25 h [32]: 2330 M⁻¹ s⁻¹
- Drug metabolism [41]: metabolite_detected
